Paper PMC4685510, “A Cell Biologist’s Field Guide to Aurora Kinase Inhibitors” (Frontiers in Oncology, 2015)

Experiments:
Assay in all cases: biochemical
Type in all cases: biochemical
[1] = target: T1, 363 human kinases (including Aurora A/B/C) (Homo sapiens, UniProt Q8IWQ3); settings: BRSK2, [ATP] 50 µM; for remaining activity at 0.1 µM: 100 nM; for remaining activity at 0.1 µM / remaining activity at 0.5 µM: read-out: % Enzyme Activity (relative to DMSO controls)
T1 sequence (Q8IWQ3 1-736): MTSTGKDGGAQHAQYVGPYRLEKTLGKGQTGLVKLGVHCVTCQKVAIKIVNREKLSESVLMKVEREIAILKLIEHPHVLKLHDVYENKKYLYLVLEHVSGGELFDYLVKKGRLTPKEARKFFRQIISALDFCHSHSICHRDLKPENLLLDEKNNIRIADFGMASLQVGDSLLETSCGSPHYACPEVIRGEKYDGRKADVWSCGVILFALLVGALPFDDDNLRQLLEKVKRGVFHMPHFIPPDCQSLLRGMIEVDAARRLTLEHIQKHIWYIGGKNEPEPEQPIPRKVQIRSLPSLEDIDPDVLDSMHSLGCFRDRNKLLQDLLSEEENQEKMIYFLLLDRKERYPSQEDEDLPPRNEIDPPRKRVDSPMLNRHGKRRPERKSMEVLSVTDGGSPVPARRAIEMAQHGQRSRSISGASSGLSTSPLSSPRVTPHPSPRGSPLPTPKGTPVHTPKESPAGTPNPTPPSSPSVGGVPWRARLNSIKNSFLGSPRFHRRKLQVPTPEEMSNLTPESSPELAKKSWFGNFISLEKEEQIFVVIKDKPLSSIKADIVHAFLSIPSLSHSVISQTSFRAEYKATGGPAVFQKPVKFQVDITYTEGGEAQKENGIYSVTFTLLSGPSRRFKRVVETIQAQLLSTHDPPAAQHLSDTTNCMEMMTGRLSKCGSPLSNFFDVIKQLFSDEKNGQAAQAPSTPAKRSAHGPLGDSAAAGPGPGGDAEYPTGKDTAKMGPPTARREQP
Source text: (§1) However, the Aurora A/B selectivity ratios derived from our in vitro and in vivo data can be compared to prioritize inhibitors.

[2] = target: 363 human kinases (including Aurora A/B/C) (Homo sapiens, UniProt Q07912); settings: ACK1, [ATP] 100 µM; for remaining activity at 0.1 µM: 100 nM; for remaining activity at 0.1 µM / remaining activity at 0.5 µM: read-out: % Enzyme Activity (relative to DMSO controls)
Source text: as §1

[3] = target: T2, 363 human kinases (including Aurora A/B/C) (Homo sapiens, UniProt Q9HBY8); settings: SGK2; for remaining activity at 0.1 µM: 100 nM; for remaining activity at 0.1 µM / remaining activity at 0.5 µM: read-out: % Enzyme Activity (relative to DMSO controls)
T2 sequence (Q9HBY8 1-367): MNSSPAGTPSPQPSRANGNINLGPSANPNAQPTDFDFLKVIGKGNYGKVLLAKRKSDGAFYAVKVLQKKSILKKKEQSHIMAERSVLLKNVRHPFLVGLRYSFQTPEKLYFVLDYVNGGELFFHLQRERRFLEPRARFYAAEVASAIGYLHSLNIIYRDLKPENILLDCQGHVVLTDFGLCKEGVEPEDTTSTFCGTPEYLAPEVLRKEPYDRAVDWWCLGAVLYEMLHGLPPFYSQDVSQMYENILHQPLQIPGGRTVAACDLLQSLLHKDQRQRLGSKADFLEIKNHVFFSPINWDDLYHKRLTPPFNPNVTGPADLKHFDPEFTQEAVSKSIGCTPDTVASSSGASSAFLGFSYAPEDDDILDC
Source text: as §1

[4] = target: 363 human kinases (including Aurora A/B/C) (Homo sapiens, UniProt P49761); settings: CLK3, [ATP] 10 µM; for remaining activity at 0.1 µM: 100 nM; for remaining activity at 0.1 µM / remaining activity at 0.5 µM: read-out: % Enzyme Activity (relative to DMSO controls)
Chain of 363 human kinases (including Aurora A/B/C) (Homo sapiens, UniProt P49761) (P49761 whole entry): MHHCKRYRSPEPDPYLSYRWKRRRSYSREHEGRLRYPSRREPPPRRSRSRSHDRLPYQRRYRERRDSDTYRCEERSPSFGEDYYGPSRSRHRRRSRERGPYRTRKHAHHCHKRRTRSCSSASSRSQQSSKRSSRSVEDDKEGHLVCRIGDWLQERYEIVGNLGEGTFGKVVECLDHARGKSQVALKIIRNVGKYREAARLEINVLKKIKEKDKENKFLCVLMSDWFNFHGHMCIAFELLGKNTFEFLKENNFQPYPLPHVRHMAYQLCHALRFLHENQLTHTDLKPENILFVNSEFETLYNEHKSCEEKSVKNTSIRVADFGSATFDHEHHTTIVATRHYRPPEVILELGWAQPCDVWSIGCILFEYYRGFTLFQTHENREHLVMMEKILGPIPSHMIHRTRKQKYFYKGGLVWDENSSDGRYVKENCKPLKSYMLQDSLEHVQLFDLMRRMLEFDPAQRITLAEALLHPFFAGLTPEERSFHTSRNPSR
Source text: as §1

[5] = target: T3, 363 human kinases (including Aurora A/B/C) (Homo sapiens, UniProt P51955); settings: NEK2; for remaining activity at 0.1 µM: 100 nM; for remaining activity at 0.1 µM / remaining activity at 0.5 µM: read-out: % Enzyme Activity (relative to DMSO controls)
T3 sequence (P51955 1-445): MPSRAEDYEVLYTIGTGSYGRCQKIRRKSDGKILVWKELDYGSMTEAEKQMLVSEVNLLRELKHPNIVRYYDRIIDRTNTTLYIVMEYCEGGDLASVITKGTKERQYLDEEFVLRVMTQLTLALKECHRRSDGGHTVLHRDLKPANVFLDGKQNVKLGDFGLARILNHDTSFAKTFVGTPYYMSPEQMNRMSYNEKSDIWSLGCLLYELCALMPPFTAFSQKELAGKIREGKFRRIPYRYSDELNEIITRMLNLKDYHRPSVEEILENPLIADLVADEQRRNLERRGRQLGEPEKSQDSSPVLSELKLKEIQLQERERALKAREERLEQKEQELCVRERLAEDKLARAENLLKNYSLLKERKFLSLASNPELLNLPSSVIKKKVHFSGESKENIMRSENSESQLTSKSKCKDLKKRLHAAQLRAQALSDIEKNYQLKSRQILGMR
Source text: as §1

[6] = target: 363 human kinases (including Aurora A/B/C) (Homo sapiens, UniProt P53355); settings: DAPK1, [ATP] 10 µM; for remaining activity at 0.1 µM: 100 nM; for remaining activity at 0.1 µM / remaining activity at 0.5 µM: read-out: % Enzyme Activity (relative to DMSO controls)
Chain of 363 human kinases (including Aurora A/B/C) (Homo sapiens, UniProt P53355) (P53355 whole entry): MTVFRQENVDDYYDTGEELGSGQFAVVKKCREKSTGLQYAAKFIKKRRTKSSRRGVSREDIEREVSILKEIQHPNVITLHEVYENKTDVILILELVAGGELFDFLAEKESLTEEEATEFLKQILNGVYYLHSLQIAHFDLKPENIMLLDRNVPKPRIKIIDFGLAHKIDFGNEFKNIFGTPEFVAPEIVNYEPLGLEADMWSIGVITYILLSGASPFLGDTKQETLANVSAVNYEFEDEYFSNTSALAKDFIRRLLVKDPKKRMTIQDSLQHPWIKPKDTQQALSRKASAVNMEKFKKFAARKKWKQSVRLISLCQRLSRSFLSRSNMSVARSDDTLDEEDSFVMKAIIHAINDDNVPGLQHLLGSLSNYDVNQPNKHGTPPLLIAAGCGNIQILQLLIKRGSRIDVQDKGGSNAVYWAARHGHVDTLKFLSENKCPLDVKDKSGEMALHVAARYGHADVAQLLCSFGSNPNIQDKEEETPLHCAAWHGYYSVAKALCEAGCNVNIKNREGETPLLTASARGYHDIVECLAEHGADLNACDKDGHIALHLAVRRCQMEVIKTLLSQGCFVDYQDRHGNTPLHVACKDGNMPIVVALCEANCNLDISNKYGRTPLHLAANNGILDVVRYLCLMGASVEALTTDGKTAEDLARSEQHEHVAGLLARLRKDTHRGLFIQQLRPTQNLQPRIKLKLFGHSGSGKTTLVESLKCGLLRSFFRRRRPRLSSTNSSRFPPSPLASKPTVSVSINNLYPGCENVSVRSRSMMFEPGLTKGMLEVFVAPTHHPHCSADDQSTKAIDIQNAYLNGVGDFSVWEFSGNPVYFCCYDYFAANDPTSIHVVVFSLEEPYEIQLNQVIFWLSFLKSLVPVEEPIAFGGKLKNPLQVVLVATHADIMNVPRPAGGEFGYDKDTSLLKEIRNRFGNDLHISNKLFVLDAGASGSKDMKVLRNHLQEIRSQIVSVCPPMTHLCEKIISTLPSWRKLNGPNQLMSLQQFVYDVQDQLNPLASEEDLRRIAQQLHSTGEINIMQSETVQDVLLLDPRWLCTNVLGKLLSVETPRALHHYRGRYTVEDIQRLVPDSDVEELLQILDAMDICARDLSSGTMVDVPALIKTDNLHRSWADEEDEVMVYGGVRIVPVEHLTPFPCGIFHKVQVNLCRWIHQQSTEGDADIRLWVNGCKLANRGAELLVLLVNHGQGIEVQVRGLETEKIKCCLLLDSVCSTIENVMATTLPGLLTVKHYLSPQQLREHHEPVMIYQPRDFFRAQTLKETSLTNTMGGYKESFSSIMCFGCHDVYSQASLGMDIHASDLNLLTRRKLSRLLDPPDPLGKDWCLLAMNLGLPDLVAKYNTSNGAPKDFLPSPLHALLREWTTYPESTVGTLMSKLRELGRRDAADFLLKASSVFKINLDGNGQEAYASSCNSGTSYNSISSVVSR
Source text: as §1

[7] = target: 363 human kinases (including Aurora A/B/C) (Homo sapiens, UniProt Q13464); settings: ROCK1; for remaining activity at 0.1 µM: 100 nM; for remaining activity at 0.1 µM / remaining activity at 0.5 µM: read-out: % Enzyme Activity (relative to DMSO controls)
Source text: as §1

[8] = target: 363 human kinases (including Aurora A/B/C) (Homo sapiens, UniProt Q5VT25); settings: MRCKa/CDC42BPA; for remaining activity at 0.1 µM: 100 nM; for remaining activity at 0.1 µM / remaining activity at 0.5 µM: read-out: % Enzyme Activity (relative to DMSO controls)
Chain of 363 human kinases (including Aurora A/B/C) (Homo sapiens, UniProt Q5VT25) (Q5VT25 whole entry): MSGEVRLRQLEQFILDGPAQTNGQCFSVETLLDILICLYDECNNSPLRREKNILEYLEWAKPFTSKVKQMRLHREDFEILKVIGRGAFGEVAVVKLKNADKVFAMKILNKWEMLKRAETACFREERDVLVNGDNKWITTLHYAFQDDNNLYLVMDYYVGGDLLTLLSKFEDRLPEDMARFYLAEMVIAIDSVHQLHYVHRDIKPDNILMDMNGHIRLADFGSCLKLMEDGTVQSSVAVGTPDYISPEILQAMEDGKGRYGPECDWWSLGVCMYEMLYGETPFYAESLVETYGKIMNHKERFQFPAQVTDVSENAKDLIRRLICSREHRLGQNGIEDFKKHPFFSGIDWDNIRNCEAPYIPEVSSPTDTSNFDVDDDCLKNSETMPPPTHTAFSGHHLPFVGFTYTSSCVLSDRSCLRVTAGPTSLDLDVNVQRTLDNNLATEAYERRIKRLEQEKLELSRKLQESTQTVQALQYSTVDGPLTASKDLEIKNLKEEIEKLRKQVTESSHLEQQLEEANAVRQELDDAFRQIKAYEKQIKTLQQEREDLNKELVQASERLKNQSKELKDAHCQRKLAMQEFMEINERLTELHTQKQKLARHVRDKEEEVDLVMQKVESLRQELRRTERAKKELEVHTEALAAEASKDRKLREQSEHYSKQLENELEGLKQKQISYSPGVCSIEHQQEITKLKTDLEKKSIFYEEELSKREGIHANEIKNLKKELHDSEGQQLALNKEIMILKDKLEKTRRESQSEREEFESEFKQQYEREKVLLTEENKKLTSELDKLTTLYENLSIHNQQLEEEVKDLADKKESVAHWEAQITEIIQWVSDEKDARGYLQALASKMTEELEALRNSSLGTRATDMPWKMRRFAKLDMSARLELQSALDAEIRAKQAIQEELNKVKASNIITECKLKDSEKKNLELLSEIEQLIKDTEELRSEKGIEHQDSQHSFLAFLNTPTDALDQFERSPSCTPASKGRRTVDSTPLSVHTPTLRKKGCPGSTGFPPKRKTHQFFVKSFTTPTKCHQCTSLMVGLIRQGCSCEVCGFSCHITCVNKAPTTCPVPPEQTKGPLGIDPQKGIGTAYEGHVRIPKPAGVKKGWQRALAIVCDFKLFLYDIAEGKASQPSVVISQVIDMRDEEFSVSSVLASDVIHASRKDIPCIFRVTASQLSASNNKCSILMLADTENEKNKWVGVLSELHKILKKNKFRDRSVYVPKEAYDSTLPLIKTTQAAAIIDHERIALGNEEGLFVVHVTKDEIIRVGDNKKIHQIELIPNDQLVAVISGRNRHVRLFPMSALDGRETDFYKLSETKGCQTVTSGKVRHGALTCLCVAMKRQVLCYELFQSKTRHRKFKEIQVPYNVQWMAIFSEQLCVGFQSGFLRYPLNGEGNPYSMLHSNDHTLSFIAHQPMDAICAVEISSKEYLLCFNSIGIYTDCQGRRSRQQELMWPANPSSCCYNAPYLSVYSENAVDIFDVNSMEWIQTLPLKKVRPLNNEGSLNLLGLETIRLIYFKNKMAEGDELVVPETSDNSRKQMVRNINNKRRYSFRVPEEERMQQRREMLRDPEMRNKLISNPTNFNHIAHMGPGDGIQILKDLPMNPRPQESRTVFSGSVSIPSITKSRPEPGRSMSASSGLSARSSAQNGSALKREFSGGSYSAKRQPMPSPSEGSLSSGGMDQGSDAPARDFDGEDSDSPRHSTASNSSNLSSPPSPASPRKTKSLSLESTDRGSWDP
Source text: as §1

[9] = target: 363 human kinases (including Aurora A/B/C) (Homo sapiens, UniProt P41279); settings: COT1/MAP3K8, [ATP] 50 µM; for remaining activity at 0.1 µM: 100 nM; for remaining activity at 0.1 µM / remaining activity at 0.5 µM: read-out: % Enzyme Activity (relative to DMSO controls)
Chain of 363 human kinases (including Aurora A/B/C) (Homo sapiens, UniProt P41279) (P41279 whole entry): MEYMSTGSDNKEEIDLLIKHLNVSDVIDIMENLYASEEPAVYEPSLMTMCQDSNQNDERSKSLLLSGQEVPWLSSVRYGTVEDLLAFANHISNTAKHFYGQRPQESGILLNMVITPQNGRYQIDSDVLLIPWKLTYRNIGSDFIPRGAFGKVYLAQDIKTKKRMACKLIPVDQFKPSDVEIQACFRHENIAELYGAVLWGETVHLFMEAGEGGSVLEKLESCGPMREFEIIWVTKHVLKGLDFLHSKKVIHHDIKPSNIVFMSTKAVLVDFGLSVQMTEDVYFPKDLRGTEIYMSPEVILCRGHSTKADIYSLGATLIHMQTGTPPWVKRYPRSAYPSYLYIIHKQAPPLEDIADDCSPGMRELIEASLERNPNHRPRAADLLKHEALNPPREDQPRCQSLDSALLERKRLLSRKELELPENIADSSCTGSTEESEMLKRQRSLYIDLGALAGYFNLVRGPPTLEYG
Source text: as §1

[10] = target: 363 human kinases (including Aurora A/B/C) (Homo sapiens, UniProt P29317); settings: EPHA2, [ATP] 50 µM; for remaining activity at 0.1 µM: 100 nM; for remaining activity at 0.1 µM / remaining activity at 0.5 µM: read-out: % Enzyme Activity (relative to DMSO controls)
Chain of 363 human kinases (including Aurora A/B/C) (Homo sapiens, UniProt P29317) (P29317 24-976): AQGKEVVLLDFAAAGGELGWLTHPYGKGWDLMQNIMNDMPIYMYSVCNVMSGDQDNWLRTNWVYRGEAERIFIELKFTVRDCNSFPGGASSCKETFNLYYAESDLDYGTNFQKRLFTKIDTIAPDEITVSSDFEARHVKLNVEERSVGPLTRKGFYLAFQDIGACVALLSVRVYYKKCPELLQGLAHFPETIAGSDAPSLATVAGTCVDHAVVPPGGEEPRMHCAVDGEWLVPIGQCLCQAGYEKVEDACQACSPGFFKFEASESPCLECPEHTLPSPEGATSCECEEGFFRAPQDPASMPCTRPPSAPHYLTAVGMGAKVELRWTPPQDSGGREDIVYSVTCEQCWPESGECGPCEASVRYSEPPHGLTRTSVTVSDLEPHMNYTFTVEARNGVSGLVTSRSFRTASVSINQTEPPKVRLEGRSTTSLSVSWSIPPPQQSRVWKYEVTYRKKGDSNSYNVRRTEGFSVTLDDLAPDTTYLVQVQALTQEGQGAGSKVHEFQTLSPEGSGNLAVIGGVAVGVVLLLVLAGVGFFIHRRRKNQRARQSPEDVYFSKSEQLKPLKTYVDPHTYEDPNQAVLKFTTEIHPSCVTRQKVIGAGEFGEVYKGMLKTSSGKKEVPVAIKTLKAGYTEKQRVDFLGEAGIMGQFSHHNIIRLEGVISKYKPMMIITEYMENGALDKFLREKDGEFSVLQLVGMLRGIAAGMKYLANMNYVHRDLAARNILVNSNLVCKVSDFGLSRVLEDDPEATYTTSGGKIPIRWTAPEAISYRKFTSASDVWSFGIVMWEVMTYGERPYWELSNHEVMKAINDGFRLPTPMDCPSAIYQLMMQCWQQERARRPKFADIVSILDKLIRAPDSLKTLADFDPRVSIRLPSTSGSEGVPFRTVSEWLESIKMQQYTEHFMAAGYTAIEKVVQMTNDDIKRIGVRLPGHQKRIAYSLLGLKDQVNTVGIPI
Source text: as §1

[11] = target: T4, 363 human kinases (including Aurora A/B/C) (Homo sapiens, UniProt P36897); settings: ALK5/TGFBR1, [ATP] 100 µM; for remaining activity at 0.1 µM: 100 nM; for remaining activity at 0.1 µM / remaining activity at 0.5 µM: read-out: % Enzyme Activity (relative to DMSO controls)
T4 sequence (P36897 34-503): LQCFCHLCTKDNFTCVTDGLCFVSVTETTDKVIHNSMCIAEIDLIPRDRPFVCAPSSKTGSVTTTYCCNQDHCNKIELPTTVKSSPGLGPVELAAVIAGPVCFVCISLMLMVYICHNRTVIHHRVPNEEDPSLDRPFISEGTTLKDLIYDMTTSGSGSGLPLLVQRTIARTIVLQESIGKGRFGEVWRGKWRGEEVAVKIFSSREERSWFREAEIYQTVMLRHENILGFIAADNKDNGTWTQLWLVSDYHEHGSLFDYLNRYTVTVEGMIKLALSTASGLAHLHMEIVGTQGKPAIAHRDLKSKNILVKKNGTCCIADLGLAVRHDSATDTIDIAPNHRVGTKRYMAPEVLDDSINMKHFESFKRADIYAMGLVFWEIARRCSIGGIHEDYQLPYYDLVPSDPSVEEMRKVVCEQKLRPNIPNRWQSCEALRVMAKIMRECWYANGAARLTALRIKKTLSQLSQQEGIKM
Source text: as §1

| SMILES | remaining activity at 0.1 µM [1] [%] | remaining activity at 0.1 µM [2] [%] | remaining activity at 0.1 µM [3] [%] | remaining activity at 0.1 µM [4] [%] | remaining activity at 0.1 µM [5] [%] | remaining activity at 0.1 µM [6] [%] | remaining activity at 0.1 µM [7] [%] | remaining activity at 0.1 µM [8] [%] | remaining activity at 0.1 µM [9] [%] | remaining activity at 0.1 µM [10] [%] | remaining activity at 0.1 µM [11] [%] | remaining activity at 0.5 µM ([1]; 500 nM) [%] | remaining activity at 0.5 µM ([2]; 500 nM) [%] | remaining activity at 0.5 µM ([3]; 500 nM) [%] | remaining activity at 0.5 µM ([4]; 500 nM) [%] | remaining activity at 0.5 µM ([5]; 500 nM) [%] | remaining activity at 0.5 µM ([6]; 500 nM) [%] | remaining activity at 0.5 µM ([7]; 500 nM) [%] | remaining activity at 0.5 µM ([8]; 500 nM) [%] | remaining activity at 0.5 µM ([9]; 500 nM) [%] | other results |
| --- | --- | --- | --- | --- | --- | --- | --- | --- | --- | --- | --- | --- | --- | --- | --- | --- | --- | --- | --- | --- | --- |
| CCn1cc(-c2ccnc3[nH]c(-c4cccc(CN(C)C)c4)cc23)c(-c2ccc(NC(=O)N(C)C)cc2)n1 [GSK1070916] | 88.4 | 83.9 | 102 | 83.4 | 110 | 94.7 | 101 | 108 | 87.8 | 92.7 | 106 |  |  |  |  |  |  |  |  |  |  |
| O=C(c1cccc(Cl)c1F)N1CCN(Cc2cccc(Nc3nccs3)n2)CC1 [MK-8745] |  |  |  |  |  |  |  |  |  |  |  | 109 | 51.9 | 100 | 82.7 | 104 | 101 | 98.9 | 104 | 91.3 | % Enzyme Activity (relative to DMSO controls) ([1]; 500 nM): 107.67%; % Enzyme Activity (relative to DMSO controls) ([2]; 500 nM): 50.10%; % Enzyme Activity (relative to DMSO controls) ([3]; 500 nM): 98.06%; % Enzyme Activity (relative to DMSO controls) ([4]; 500 nM): 82.30%; % Enzyme Activity (relative to DMSO controls) ([5]; 500 nM): 103.20%; % Enzyme Activity (relative to DMSO controls) ([6]; 500 nM): 98.77%; % Enzyme Activity (relative to DMSO controls) ([7]; 500 nM): 98.74%; % Enzyme Activity (relative to DMSO controls) ([8]; 500 nM): 103.58%; % Enzyme Activity (relative to DMSO controls) ([9]; 500 nM): 88.35%; % Enzyme Activity (relative to DMSO controls) ([10]; 500 nM): 62.60%; remaining activity at 0.5 µM ([10]; 500 nM): 63.4%; % Enzyme Activity (relative to DMSO controls) ([11]; 500 nM): 109.55%; remaining activity at 0.5 µM ([11]; 500 nM): 110% |
| O=C(O)[C@]1(Cc2cccc(Nc3nccs3)n2)CC[C@@H](Oc2cccc(Cl)c2F)CC1 [MK-5108] | 92.7 | 15.8 | 105 | 97.5 | 84.3 | 104 | 99.8 | 93.7 | 101 | 13.4 | 116 | 78.7 | 1.62 | 105 | 71.5 | 105 | 101 | 102 | 103 | 91 | remaining activity at 0.5 µM ([10]; 500 nM): 4.4%; remaining activity at 0.5 µM ([11]; 500 nM): 130% |
